# Data published in publication PMC7177833, “2-Aminopyridine Analogs Inhibit Both Enzymes of the Glyoxylate Shunt in Pseudomonas aeruginosa” (International Journal of Molecular Sciences, 2020).
# Read-outs that look alike come from different tables or passages of the source.
# What was measured:
# [1] = target: T1, ICLPa (isocitrate lyase from P. aeruginosa) (Pseudomonas aeruginosa, UniProt Q9I0K4); experiment: Inhibition of purified ICLPa enzymatic activity; format: biochemical; conditions: for inhibition at 75 µM: 75 µM compound, read-out: Enzyme Inhibition (%) at 75 µM ICLPa; for IC50: purified enzyme, 170 nM ICL
# T1 construct: made in house
# T1 sequence (Q9I0K4 1-531): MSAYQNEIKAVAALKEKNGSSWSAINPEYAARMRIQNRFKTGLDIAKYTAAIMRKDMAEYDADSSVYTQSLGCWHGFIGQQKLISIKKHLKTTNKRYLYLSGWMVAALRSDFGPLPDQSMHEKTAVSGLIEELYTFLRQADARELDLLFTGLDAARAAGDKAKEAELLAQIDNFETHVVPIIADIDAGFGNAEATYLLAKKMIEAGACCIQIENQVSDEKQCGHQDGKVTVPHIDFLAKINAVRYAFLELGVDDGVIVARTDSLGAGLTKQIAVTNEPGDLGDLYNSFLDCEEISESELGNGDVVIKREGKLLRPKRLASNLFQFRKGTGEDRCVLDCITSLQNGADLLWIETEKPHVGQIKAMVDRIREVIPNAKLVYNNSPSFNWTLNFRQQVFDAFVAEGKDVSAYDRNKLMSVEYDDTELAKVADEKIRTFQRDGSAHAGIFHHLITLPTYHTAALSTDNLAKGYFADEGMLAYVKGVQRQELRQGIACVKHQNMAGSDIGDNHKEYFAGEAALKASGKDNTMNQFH
# Method: The enzymatic activity of purified ICLPa and MSPa was assayed essentially as previously described. Compounds were added to the reaction mixtures (minus substrates) and incubated for 5 min at 37 °C. The enzyme concentration in the reaction mixtures was 170 nM for ICL and 25 nM for MS (based on the concentration of the monomer in each case). […] The reactions were initiated by the addition of pH-adjusted substrates, and the initial rates were recorded as A324 nm (for ICLPa) and A412 nm (for MSPa) using a Biospectrometer (Eppendorf, Stevenage, UK). Substrate turnover was calculated from the molar extinction coefficient of the assay products: Glyoxylate-phenylhydrazone (16,800/M/cm) for ICLPa and 2-nitro-5-thiobenzoic acid (14,150/M/cm) for MSPa.
# All data fitting was performed with GraphPad Prism version 7.04 (GraphPad Software, Inc., La Jolla, CA, USA). The solid lines are the result of fitting the data to the equations denoted in relevant experimental sections. IC50 values were determined by a nonlinear fit using the equation for sigmoidal dose-response with variable slope. In all graphs, unless otherwise stated, the data points are the mean of experimental triplicates, and all error bars correspond to ± standard deviation.
# [2] = Metabolic stability in human liver microsomes; format: in vitro ADME; conditions: HLM; for Clh, int (predicted hepatic clearance): scaled; for Clh (predicted in vivo hepatic clearance): well-stirred model; for half-life at 0.5 µM / microsomal CLint at 0.5 µM: human, pooled human liver microsomes, pH 7.4
# Method: (§1) The metabolic stability of the test compounds was measured following incubation with liver microsomes from humans (BioIVT, lot no. IHG; West Sussex, UK) and rats (BD Gentest, lot no. 60614; BD Biosciences, Milan, Italy). Verapamil and dextromethorphan were used as positive controls. An automated incubation procedure was performed using the RSP Freedom Evo liquid dispensing and incubation system (TECAN, Milan, Italy). Five microliters of 50 µM test compound or positive control were added to 445 µL of microsomal suspension in 96 deep-well plates. The microsomal preparation comprised 0.56 mg/mL of pooled and homogenized liver microsomes suspended in 50 mM potassium phosphate buffer, pH 7.4. After 5 min at 37 °C, the reactions were initiated by adding 50 µL of prewarmed NADPH regenerating buffer to each sample. The regenerating buffer comprised a 2% NaHCO3 solution containing 1.7 mg NADP, 7.8 mg glucose-6-phosphate, and 6 units of glucose-6-phosphate dehydrogenase per mL. The samples were incubated at 37 °C, and 50 µL aliquots were withdrawn after 0, 3, 10, 15, 30, and 45 min and quenched in 150 µL acetonitrile. […] The analytical column was a Synergi “Max-RP” reverse phase C12 with TMS endcapping (30 mm × 2 mm, 4 µm particle size) (Phenomenex, Inc., Bologna, Italy). The column temperature was maintained at 60 °C. […] Analytes were quantified in multiple reaction-monitoring mode. Peak areas were integrated using Integrator Software from Agilent (Agilent Technologies, Milan, Italy) and were divided by the peak areas of the internal standard. The percentage of parent compound remaining was calculated by normalizing the peak area ratio of the parent compound to that of the internal standard at time 0. The half-lives of compound metabolism were derived from the linear portion of the slope of ln percent parent compound vs time. Intrinsic clearance in liver microsomes was estimated from: (1) Clint=k×(V/M) (2) Clh, int=(Clint (×1st Scaling factor)×2^ndScaling factor) (3) Clh=(Q×Clh, int)/(Q+Clh, int).
# (§2) Here, k is the rate of depletion of the parent compound ([…]), V is the volume of the reaction mixture in mL, and M is the concentration of microsomal protein (in mg/mL). The amounts of protein in the incubations were scaled relative to the average liver- and body-mass of each species to obtain intrinsic hepatic clearance (Clh, int, in […]) (Table S3). These scaling factors were used along with the average hepatic blood flow (Q, in […]) of each species to obtain in vivo correlations (Clh, in mL/min/kg) using the well-stirred model.
# [3] = Metabolic stability in rat liver microsomes; format: in vitro ADME; conditions: RLM; for Clh, int (predicted hepatic clearance): scaled; for Clh (predicted in vivo hepatic clearance): well-stirred model; for half-life at 0.5 µM / microsomal CLint at 0.5 µM: rat, pooled rat liver microsomes, pH 7.4
# Method: as §1, §2
# CYP3A4 = target: T2, CYP3A4 (Homo sapiens, UniProt P08684); experiment: CYP450 inhibition in HLM, atorvastatin, nifedipine and midazolam probes; format: in vitro ADME
# T2 construct: pooled human liver microsomes; tissue BioIVT; host or cells: pooled human liver microsomes
# T2 sequence (P08684 whole entry): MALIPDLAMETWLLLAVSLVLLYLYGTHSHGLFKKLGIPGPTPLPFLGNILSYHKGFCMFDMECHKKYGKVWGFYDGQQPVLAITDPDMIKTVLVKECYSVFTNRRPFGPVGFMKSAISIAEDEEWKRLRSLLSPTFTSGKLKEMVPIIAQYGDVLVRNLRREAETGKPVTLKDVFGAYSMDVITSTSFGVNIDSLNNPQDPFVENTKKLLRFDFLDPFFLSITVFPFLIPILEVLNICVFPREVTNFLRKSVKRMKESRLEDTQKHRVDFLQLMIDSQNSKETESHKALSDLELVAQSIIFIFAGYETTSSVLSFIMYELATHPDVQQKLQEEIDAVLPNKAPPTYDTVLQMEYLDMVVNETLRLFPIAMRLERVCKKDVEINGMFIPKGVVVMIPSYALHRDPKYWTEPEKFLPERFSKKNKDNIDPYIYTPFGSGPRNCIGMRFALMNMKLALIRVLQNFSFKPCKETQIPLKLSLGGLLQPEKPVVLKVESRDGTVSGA
# Method: All incubations were carried out in triplicate.
# The column temperature was maintained at 60 °C. […] The column temperature was maintained at 45 °C. […] The analytes were quantified in multiple reaction-monitoring mode.
# [4] = atorvastatin probe, read-out: IC50 CYP450 3A4-ATR
# [5] = midazolam probe, read-out: IC50 CYP450 3A4- MDZ
# [6] = nifedipine probe, read-out: IC50 CYP450 3A4-NIF
SMILES,inhibition at 75 µM [1],IC50 [1],T1/2 [2],"Clh, int (predicted hepatic clearance) [2]",Clh (predicted in vivo hepatic clearance) [2],half-life at 0.5 µM [2],microsomal CLint at 0.5 µM [2],"Clh, int (predicted hepatic clearance) [3]",Clh (predicted in vivo hepatic clearance) [3],half-life at 0.5 µM [3],microsomal CLint at 0.5 µM [3],IC50 (CYP3A4; [4]),IC50 (CYP3A4; [5]),IC50 (CYP3A4; [6])
CC(C)(C)OC(=O)/N=C(\NC(=O)OC(C)(C)C)Nc1cc(Cl)ccn1 [SB002],100%,13.3 µM,1.342 h,23.31 mL/min/kg,10.96 mL/min/kg,1.35 h,17.3 µL/min/mg,62.99 mL/min/kg,36.18 mL/min/kg,0.85 h,27.3 µL/min/mg,> 100 µM,> 100 µM,> 100 µM
CC(C)(C)OC(=O)/N=C(\NC(=O)OC(C)(C)C)Nc1cc(C#N)ccn1 [SB023],34.7%,92.5 µM,1.214 h,25.75 mL/min/kg,11.48 mL/min/kg,1.2 h,19.1 µL/min/mg,124.58 mL/min/kg,50.53 mL/min/kg,0.43 h,53.9 µL/min/mg,> 100 µM,> 100 µM,> 100 µM
"Nc1cc(Cl)ccn1 [Compound 2-AP, 2-amino-4-chloropyridine, reference compound]",21%,> 75 µM,,34.33 mL/min/kg,12.91 mL/min/kg,0.911 h,25.4 µL/min/mg,14.63 mL/min/kg,12.48 mL/min/kg,3.66 h,6.33 µL/min/mg,,> 100 µM,
